Results on six molecules are retold here after patent publication US20260226038A1, “NEW COMPOUNDS FOR TREATING STAPHYLOCOCCUS INFECTIONS” (AB2 THERAPEUTICS, S. L., priority 2023, published 2026).

≈ marks a conversion by molar mass, not a printed value.

The experiment concerns Staphylococcus aureus. Description: MIC test, microdilution method (CLSI). In kind it is cell-based. The conditions noted are these: ATCC strains of Staphylococcus aureus; 18-20 h at 37° C.; growth inhibited ≥80% compared to growth control. Here is the method:
Experimental Procedure: MIC Test. Microdilution Method To evaluate the antimicrobial activity of the compounds, ATCC strains of Staphylococcus aureus were used. The minimal inhibitory concentrations (MICs) of the compounds were determined by microdilution assays, according to CLSI methodology. 3 mg of compound were weighted in a 4 mL glass vials and were dissolved in properly volume of DMSO 100% (Reference: […]-50, Sigma) to reach 12.8 mg/mL (Cmax). In 96-well plates U-form (Reference: 650161, Greiner Bio-One): • Dispense 50 μL of the assayed compounds prepared in DMSO 100% at 12.8 mg/mL in each well in column 1. (8 different compounds per plate, row 1 to row 8) • Dispense 25 μL of DMSO 100% in all wells in columns 2 to 12. • With a multichannel pipette, aspire 25 μL of column 1 and dispense in column 2. Mix the contents in column 2 several times and aspire 25 μL. Dispense in column 3. • Repeat the process until column 10. In column 10, aspire 25 μL of the content and discard. In 96-well plates U-form: • With a multichannel pipette (in dispensing mode), aspire a properly volume (consider the number of copies of the mother plate do you want to perform) of all wells in mother plate, to dispense 1 μL/well in daughter plates. Tecan instrument (FREEDOM EVO 100) was used to make the mother and daughter plates. Bacterial suspension will be prepared and normalized to 0.5 McFarland turbidity standard (aprox. 10^8 CFU/mL) using a physiological saline solution (sodium chloride 0.9%). Then, prepared a 1/1000 dilution (aprox. 10^5 CFU/mL) of the suspension in appropriate media (CLSI Standard) and inoculate 99 μL in each well in daughter plates (only columns 1 to 11) using a MultidropTM Combi Reagent Dispenser. In column 12, only 99 μL of media will be dispense as a sterility control. The final plate map is (all values in μg/mL): Plates will be incubated 18-20 h at 37° C. MIC values will be considered as the concentration of compounds at which the growth will be inhibited=>≥80%, compared to growth control.
In general terms: In broth dilution the organism is exposed to a series of concentrations in liquid medium.

For the molecule `COc1ccccc1N(CCO)C(=O)Cc1noc(CN2C(=O)C(=O)N(CC3CC3)C2=O)n1` [Example 1, 2-(5-((3-(Cyclopropylmethyl)-2,4,5-trioxoimidazolidin-1-yl)methyl)-1,2,4-oxadiazol-3-yl)-N-(2-hydroxyethyl)-N-(2-methoxyphenyl)acetamide], the minimum inhibitory concentration (MIC) was determined as 4 µg/mL (≈ 8.74 µM).

The molecule `COc1ccccc1N(CCCO)C(=O)Cc1noc(CN2C(=O)C(=O)N(CC3CC3)C2=O)n1` [Example 4, 2-(5-((3-(cyclopropylmethyl)-2,4,5-trioxoimidazolidin-1-yl)methyl)-1,2,4-oxadiazol-3-yl)-N-(3-hydroxypropyl)-N-(2-methoxyphenyl)acetamide] yielded an MIC of 16 µg/mL (≈ 33.9 µM). This MIC lies about 4-fold higher than the previous one.

Turning to `COc1ccccc1N(CCOCCO)C(=O)Cc1noc(CN2C(=O)C(=O)N(CC3CC3)C2=O)n1` [Example 5, 2-(5-((3-(cyclopropylmethyl)-2,4,5-trioxoimidazolidin-1-yl)methyl)-1,2,4-oxadiazol-3-yl)-N-(2-(2-hydroxyethoxy)ethyl)-N-(2-methoxyphenyl)acetamide], the minimal inhibitory concentration (MIC) was determined as 32 µg/mL (≈ 63.8 µM). Against the preceding molecule, the MIC is about 2-fold higher. For `CCN(C(=O)Cc1noc(CN2C(=O)C(=O)N(CC3CC3)C2=O)n1)c1ccccc1OC` [Example 24, 2-(5-((3-(Cyclopropylmethyl)-2,4,5-trioxoimidazolidin-1-yl)methyl)-1,2,4-oxadiazol-3-yl)-N-ethyl-N-(2-methoxyphenyl)acetamide] the value was 8 µg/mL (≈ 18.1 µM); for `COc1ccccc1N(C)C(=O)Cc1noc(CN2C(=O)C(=O)N(CC3CC3)C2=O)n1` [Example 26, 2-(5-((3-(Cyclopropylmethyl)-2,4,5-trioxoimidazolidin-1-yl)methyl)-1,2,4-oxadiazol-3-yl)-N-(2-methoxyphenyl)-N-methylacetamide], 4 µg/mL (≈ 9.36 µM). The molecule `COc1ccccc1NC(=O)Cc1noc(CN2C(=O)C(=O)N(CC3CC3)C2=O)n1` [Example 27, 2-(5-((3-(Cyclopropylmethyl)-2,4,5-trioxoimidazolidin-1-yl)methyl)-1,2,4-oxadiazol-3-yl)-N-(2-methoxyphenyl)acetamide] displayed an MIC of 4 µg/mL (≈ 9.68 µM).

As a reminder, the MIC is the lowest concentration found to suppress growth.
